These results are taken from PubChem BioAssay AID192 (DTP/NCI, 2004).

The subject of the assay is BDF1 mice, B16 melanoma ip, median survival T/C. As to the kind of experiment: NCI In Vivo Anticancer Drug Screen. Data for tumor model B16 Melanoma (intraperitoneal) in B6D2F1 (BDF1) mice. To be noted: endpoint: median survival time, higher = longer survival. The method in brief: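 Compounds were tested in mice carrying transplantable tumors. Survival or tumor size was recorded, and each value is the treated-group measurement (T) divided by that of the vehicle-treated control group (C).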

Where [1] appears, read: dose: 100.0 mg/kg/injection, schedule: Q01DX009 (ip), vehicle: Klucel (hydroxypropylcellulose) (HPC).
Where [2] appears, read: dose: 200.0 mg/kg/injection, schedule: Q01DX009 (ip), vehicle: Klucel (hydroxypropylcellulose) (HPC).

Toxic doses and inconclusive results are not listed.

For `NC(=O)c1[nH]nc(C2OC(CO)C(O)C2O)c1O` (stereo not drawn), the T/C is 100 % of control (dose: 0.08 mg/kg/injection, schedule: Q01DX009 (ip), vehicle: saline); 110 % of control (dose: 0.12 mg/kg/injection, schedule: Q01DX009 (ip), vehicle: saline); 111 % of control (dose: 0.16 mg/kg/injection, schedule: Q01DX009 (ip), vehicle: saline); 111 % of control (dose: 0.31 mg/kg/injection, schedule: Q01DX009 (ip), vehicle: saline); 115 % of control (dose: 0.5 mg/kg/injection, schedule: Q01DX009 (ip), vehicle: saline); 111 % of control (dose: 0.62 mg/kg/injection, schedule: Q01DX009 (ip), vehicle: saline). For the same compound, the T/C is 123 % of control (dose: 0.67 mg/kg/injection, schedule: Q01DX009 (ip), vehicle: saline); 94 % of control (dose: 1.25 mg/kg/injection, schedule: Q01DX009 (ip), vehicle: saline); 113 % of control (dose: 2.16 mg/kg/injection, schedule: Q01DX004 (ip), vehicle: saline); 112 % of control (dose: 3.6 mg/kg/injection, schedule: Q01DX004 (ip), vehicle: saline); 109 % of control (dose: 6.0 mg/kg/injection, schedule: Q01DX004 (ip), vehicle: saline); 44 % of control (dose: 10.0 mg/kg/injection, schedule: Q01DX004 (ip), vehicle: saline).

Turning to `CC(C)CCC[C@@H](C)[C@H]1CC[C@H]2[C@@H]3CC=C4C[C@@H](O)CC[C@]4(C)[C@H]3CC[C@]12C`, the T/C is 98 % of control (dose: 100.0 mg/kg/injection, schedule: Q01DX009 (ip), vehicle: other) and 114 % of control (dose: 200.0 mg/kg/injection, schedule: Q01DX009 (ip), vehicle: other).

Turning to `COc1ccc(NC(=O)Oc2cc(C)cc(C)c2)cc1`, the T/C is 96 % of control under setting [1]; 112 % of control (dose: 100.0 mg/kg/injection, schedule: Q04DX003 (ip), vehicle: Klucel (hydroxypropylcellulose) (HPC)); 96 % of control under setting [2]; 106 % of control (dose: 200.0 mg/kg/injection, schedule: Q04DX003 (ip), vehicle: Klucel (hydroxypropylcellulose) (HPC)); 89 % of control (dose: 400.0 mg/kg/injection, schedule: Q01DX009 (ip), vehicle: Klucel (hydroxypropylcellulose) (HPC)); 112 % of control (dose: 400.0 mg/kg/injection, schedule: Q04DX003 (ip), vehicle: Klucel (hydroxypropylcellulose) (HPC)).

`O=C(O)c1ccc(S(=O)(=O)N(Cl)Cl)cc1`: the T/C (dose: 100.0 mg/kg/injection, schedule: Q01DX009 (ip), vehicle: saline) was 110 % of control; the T/C (dose: 200.0 mg/kg/injection, schedule: Q01DX009 (ip), vehicle: saline) is 113 % of control; the T/C (dose: 400.0 mg/kg/injection, schedule: Q01DX009 (ip), vehicle: saline) was 104 % of control.

Regarding `O=C(COc1ccc(Cl)cc1)Nc1ccc(Cl)cc1`, the T/C by setting is: (dose: 25.0 mg/kg/injection, schedule: Q01DX009 (ip), vehicle: saline with Tween-80) 90 % of control; (dose: 50.0 mg/kg/injection, schedule: Q01DX009 (ip), vehicle: saline with Tween-80) 92 % of control; (dose: 100.0 mg/kg/injection, schedule: Q01DX009 (ip), vehicle: saline with Tween-80) 92 % of control.

As to `CC1(C)OCC(C2CCC3(C)C4=CCC5C(C)(C)C(O)CCC5(C)C4CCC23C)CC(O)C1O` (stereo not drawn), the T/C (dose: 5.0 mg/kg/injection, schedule: Q01DX009 (ip), vehicle: Klucel (hydroxypropylcellulose) (HPC)) was 118 % of control and the T/C (dose: 10.0 mg/kg/injection, schedule: Q01DX009 (ip), vehicle: Klucel (hydroxypropylcellulose) (HPC)) was 102 % of control.

With `Cc1ccc(NC(=O)N(CCCl)N=O)cc1C`, the T/C was 150 % of control (dose: 3.12 mg/kg/injection, schedule: Q01DX009 (ip), vehicle: Klucel (hydroxypropylcellulose) (HPC)) and 150 % of control (dose: 6.25 mg/kg/injection, schedule: Q01DX009 (ip), vehicle: Klucel (hydroxypropylcellulose) (HPC)).

Turning to `COc1ccc(NC2=C(C)C(=O)C3=C(C2=O)[C@H](COC(N)=O)[C@]2(OC)[C@@H]4N[C@@H]4CN32)cc1OC`, the T/C reads like this: (dose: 3.0 mg/kg/injection, schedule: Q04DX003 (ip), vehicle: water) 223 % of control; (dose: 6.0 mg/kg/injection, schedule: Q04DX003 (ip), vehicle: water) 312 % of control.

Take `c1ccc2c(c1)OCCOCCOc1ccccc1OCCOCCO2`: the T/C by setting is: (dose: 12.5 mg/kg/injection, schedule: Q04DX003 (ip), vehicle: Klucel (hydroxypropylcellulose) (HPC)) 93 % of control; (dose: 25.0 mg/kg/injection, schedule: Q04DX003 (ip), vehicle: Klucel (hydroxypropylcellulose) (HPC)) 88 % of control; (dose: 50.0 mg/kg/injection, schedule: Q04DX003 (ip), vehicle: Klucel (hydroxypropylcellulose) (HPC)) 86 % of control.

Turning to `CCCCCCCCCCCCSC1=CC(=O)C(OC)=C(OC)C1=O`, the T/C by setting is: (dose: 6.25 mg/kg/injection, schedule: Q01DX030 (ip), vehicle: saline with Tween-80) 99 % of control; (dose: 12.5 mg/kg/injection, schedule: Q01DX030 (ip), vehicle: saline with Tween-80) 95 % of control; (dose: 25.0 mg/kg/injection, schedule: Q01DX030 (ip), vehicle: saline with Tween-80) 91 % of control.

In the case of `NC(=O)Oc1ccccc1`, the T/C was 100 % of control under setting [1]; 106 % of control (dose: 100.0 mg/kg/injection, schedule: Q04DX003 (ip), vehicle: saline with Tween-80); 100 % of control under setting [2]; 113 % of control (dose: 200.0 mg/kg/injection, schedule: Q04DX003 (ip), vehicle: saline with Tween-80); 110 % of control (dose: 400.0 mg/kg/injection, schedule: Q04DX003 (ip), vehicle: saline with Tween-80).
